Laboratory results: the kinase profiling compilation of Christmann-Franck et al. (2016)
Values belong to the molecule of their own block, whether it stands above or below them.

How the values were obtained:
Experiment in all cases: radiometric filter-binding kinase assay, Kinase HotSpot
Details in all cases: compound 0.5 µM; ATP 10 µM
CDK5 CDK5R1 p35 (human) = CDK5 CDK5R1 p35 (human) (UniProt Q00535+Q15078)
CAMK2G (human) = CAMK2G (human) (UniProt Q13555)
PKN2 (human) = PKN2 (human) (UniProt Q16513)
WNK2 (human) = WNK2 (human) (UniProt Q9Y3S1)
CAMKK1 (human) = CAMKK1 (human) (UniProt Q8N5S9)
MELK (human) = MELK (human) (UniProt Q14680)
PASK (human) = PASK (human) (UniProt Q96RG2)
EPHA7 (human) = EPHA7 (human) (UniProt Q15375)
FRK (human) = FRK (human) (UniProt P42685)
INSR (human) = INSR (human) (UniProt P06213)
CDC42BPB (human) = CDC42BPB (human) (UniProt Q9Y5S2)
PLK2 (human) = PLK2 (human) (UniProt Q9NYY3)
BRSK1 (human) = BRSK1 (human) (UniProt Q8TDC3)
DCLK2 (human) = DCLK2 (human) (UniProt Q8N568)
AKT1 (human) = AKT1 (human) (UniProt P31749)
IKBKB (human) = IKBKB (human) (UniProt O14920)
ABL1 (human) = ABL1 (human) (UniProt P00519)
ABL1 (human), sequence (P00519 whole entry, looked up): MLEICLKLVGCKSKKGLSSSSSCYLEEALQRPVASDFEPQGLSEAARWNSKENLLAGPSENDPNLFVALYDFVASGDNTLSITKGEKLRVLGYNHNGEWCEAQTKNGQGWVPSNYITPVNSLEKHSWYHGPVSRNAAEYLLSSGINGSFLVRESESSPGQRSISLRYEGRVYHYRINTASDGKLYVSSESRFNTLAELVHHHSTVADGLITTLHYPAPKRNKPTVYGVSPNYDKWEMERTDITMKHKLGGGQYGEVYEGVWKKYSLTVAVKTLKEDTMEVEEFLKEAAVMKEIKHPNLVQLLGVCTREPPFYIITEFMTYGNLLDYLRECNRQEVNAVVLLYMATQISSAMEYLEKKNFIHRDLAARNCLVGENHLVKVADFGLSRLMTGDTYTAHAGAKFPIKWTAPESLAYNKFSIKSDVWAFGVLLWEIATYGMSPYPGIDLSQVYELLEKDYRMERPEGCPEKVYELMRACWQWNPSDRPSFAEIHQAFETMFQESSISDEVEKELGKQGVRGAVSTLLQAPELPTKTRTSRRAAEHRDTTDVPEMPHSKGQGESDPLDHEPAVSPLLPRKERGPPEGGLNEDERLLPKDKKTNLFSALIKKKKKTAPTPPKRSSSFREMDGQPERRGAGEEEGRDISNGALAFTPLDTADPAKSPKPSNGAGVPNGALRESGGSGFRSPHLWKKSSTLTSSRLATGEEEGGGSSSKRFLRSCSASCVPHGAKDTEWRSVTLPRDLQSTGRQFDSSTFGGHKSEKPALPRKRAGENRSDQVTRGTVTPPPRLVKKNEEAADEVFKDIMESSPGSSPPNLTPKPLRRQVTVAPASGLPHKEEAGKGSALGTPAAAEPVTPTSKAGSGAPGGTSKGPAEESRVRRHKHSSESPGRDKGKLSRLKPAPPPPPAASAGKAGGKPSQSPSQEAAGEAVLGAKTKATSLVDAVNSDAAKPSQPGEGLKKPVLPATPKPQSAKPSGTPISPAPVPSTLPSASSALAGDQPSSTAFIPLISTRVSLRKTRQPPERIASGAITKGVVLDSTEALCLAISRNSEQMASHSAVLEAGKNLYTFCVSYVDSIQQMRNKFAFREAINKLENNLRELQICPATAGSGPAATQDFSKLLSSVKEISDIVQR

PRKD1 (human) = PRKD1 (human) (UniProt Q15139)
SIK2 (human) = SIK2 (human) (UniProt Q9H0K1)
SIK2 (human), sequence (Q9H0K1 whole entry, looked up): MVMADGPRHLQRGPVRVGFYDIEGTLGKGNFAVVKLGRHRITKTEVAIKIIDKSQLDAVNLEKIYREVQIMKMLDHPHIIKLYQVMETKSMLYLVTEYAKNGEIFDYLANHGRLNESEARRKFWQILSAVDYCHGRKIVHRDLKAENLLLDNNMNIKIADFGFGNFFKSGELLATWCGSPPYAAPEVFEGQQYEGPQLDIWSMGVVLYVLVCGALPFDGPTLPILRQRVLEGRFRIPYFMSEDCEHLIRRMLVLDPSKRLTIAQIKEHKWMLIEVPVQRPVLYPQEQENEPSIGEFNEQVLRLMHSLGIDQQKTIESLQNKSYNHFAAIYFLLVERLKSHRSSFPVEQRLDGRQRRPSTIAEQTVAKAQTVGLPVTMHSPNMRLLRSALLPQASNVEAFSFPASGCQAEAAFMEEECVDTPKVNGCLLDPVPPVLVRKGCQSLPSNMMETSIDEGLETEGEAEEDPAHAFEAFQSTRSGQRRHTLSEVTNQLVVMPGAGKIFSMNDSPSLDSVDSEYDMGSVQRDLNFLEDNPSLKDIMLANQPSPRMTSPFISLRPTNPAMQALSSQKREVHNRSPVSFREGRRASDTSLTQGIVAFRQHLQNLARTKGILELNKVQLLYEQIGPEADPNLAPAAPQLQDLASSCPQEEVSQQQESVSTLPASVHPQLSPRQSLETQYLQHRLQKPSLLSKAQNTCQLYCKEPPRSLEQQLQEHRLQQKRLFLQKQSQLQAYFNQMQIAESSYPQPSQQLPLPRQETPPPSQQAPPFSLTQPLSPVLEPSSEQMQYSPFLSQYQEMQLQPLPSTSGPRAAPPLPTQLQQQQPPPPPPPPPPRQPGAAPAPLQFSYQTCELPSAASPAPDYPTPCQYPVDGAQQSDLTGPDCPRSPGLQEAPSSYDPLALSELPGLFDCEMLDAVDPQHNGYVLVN

PAK2 (human) = PAK2 (human) (UniProt Q13177)
PAK2 (human), sequence (Q13177 whole entry, looked up): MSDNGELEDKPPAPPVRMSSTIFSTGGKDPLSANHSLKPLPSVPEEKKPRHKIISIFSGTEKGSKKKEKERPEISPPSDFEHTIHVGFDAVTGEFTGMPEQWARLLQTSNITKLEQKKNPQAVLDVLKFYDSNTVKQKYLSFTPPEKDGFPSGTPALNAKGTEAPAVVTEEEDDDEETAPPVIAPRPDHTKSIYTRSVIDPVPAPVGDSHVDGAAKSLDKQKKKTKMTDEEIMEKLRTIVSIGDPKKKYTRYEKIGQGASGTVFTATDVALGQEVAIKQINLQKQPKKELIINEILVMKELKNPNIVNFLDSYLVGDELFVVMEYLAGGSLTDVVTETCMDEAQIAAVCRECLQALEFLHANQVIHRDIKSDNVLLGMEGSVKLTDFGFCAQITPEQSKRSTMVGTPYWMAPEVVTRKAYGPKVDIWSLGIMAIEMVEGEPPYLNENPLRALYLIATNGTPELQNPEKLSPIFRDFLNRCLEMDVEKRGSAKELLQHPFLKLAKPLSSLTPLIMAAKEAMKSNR

MUSK (human) = MUSK (human) (UniProt O15146)
PRKD3 (human) = PRKD3 (human) (UniProt O94806)
CAMK4 (human) = CAMK4 (human) (UniProt Q16566)
MKNK2 (human) = MKNK2 (human) (UniProt Q9HBH9)
CDK2 CCNA2 (human) = CDK2 CCNA2 (human) (UniProt P24941+P20248)
CDK2 CCNA2 (human), sequence (P20248 whole entry, looked up, other chains not shown): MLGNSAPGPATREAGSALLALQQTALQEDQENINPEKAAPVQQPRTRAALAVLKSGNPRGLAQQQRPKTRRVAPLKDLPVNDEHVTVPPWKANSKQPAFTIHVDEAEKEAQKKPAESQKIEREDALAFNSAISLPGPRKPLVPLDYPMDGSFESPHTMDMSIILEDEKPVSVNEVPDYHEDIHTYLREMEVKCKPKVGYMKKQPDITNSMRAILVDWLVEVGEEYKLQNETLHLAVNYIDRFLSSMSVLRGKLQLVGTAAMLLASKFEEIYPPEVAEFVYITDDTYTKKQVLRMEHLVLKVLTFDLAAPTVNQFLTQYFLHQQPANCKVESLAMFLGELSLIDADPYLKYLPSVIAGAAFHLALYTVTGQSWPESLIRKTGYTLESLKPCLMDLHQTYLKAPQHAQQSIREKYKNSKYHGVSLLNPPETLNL

ACVR1B (human) = ACVR1B (human) (UniProt P36896)
AURKA (human) = AURKA (human) (UniProt O14965)
RPS6KA6 KD1 KD2 (human) = RPS6KA6 KD1 KD2 (human) (UniProt Q9UK32)
PDGFRA (human) = PDGFRA (human) (UniProt P16234)
INSRR (human) = INSRR (human) (UniProt P14616)
PTK2 (human) = PTK2 (human) (UniProt Q05397)
MATK (human) = MATK (human) (UniProt P42679)
MARK2 (human) = MARK2 (human) (UniProt Q7KZI7)
STK39 (human) = STK39 (human) (UniProt Q9UEW8)
MAP3K10 (human) = MAP3K10 (human) (UniProt Q02779)
NEK9 (human) = NEK9 (human) (UniProt Q8TD19)
NEK9 (human), sequence (Q8TD19 whole entry, looked up): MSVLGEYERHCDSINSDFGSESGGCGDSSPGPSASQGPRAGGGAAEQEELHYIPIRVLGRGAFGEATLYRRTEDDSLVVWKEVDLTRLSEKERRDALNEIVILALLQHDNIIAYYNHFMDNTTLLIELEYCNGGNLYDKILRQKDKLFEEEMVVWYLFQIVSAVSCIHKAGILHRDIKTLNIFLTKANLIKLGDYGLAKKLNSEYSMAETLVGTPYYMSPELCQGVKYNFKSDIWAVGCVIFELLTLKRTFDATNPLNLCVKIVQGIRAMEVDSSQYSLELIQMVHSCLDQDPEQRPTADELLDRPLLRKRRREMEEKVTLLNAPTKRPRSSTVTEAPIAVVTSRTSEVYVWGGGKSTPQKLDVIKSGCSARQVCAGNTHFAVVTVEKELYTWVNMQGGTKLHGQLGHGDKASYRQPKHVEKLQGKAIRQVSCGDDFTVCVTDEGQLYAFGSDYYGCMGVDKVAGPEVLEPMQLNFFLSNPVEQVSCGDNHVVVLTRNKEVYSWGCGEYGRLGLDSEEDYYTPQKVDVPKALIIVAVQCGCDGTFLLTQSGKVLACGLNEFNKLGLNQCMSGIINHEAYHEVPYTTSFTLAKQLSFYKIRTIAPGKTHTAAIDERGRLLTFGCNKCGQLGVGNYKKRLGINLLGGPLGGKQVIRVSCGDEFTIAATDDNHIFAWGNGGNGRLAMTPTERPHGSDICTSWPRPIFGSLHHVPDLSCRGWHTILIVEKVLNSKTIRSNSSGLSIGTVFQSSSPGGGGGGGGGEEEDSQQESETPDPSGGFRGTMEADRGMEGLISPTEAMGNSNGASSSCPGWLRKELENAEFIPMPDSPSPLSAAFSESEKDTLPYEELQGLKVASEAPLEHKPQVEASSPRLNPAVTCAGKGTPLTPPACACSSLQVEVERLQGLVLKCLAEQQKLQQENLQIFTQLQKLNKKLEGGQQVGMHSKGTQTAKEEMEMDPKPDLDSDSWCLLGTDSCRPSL

MAP3K9 (human) = MAP3K9 (human) (UniProt P80192)
MAP3K9 (human), sequence (P80192 whole entry, looked up): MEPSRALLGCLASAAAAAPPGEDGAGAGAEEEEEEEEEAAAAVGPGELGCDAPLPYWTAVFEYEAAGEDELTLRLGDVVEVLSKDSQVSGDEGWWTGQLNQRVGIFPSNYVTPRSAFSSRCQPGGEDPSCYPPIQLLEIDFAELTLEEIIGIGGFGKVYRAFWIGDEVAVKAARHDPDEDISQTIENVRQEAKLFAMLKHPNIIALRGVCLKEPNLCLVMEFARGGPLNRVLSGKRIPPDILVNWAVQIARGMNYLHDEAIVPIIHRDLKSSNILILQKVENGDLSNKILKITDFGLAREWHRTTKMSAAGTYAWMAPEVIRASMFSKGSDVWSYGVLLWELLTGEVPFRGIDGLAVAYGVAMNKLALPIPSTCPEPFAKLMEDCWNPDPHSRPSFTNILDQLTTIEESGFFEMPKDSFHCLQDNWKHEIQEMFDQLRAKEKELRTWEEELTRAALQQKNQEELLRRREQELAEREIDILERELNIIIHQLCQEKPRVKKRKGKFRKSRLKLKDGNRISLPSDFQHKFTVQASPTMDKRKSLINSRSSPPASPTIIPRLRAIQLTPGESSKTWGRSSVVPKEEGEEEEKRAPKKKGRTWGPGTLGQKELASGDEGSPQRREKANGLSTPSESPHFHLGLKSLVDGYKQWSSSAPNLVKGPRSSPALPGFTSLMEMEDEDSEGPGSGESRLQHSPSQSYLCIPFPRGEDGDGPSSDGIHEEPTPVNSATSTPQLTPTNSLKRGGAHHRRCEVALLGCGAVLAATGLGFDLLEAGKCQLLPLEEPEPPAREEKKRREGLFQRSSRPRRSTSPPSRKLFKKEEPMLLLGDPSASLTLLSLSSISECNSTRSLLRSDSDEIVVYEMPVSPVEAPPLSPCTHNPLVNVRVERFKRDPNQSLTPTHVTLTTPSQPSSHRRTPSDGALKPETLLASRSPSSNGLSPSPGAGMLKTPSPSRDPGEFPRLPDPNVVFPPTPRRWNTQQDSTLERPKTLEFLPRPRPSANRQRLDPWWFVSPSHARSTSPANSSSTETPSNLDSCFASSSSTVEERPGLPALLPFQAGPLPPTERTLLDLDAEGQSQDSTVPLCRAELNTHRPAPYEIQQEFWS

SRPK2 (human) = SRPK2 (human) (UniProt P78362)
RPS6KA3 KD1 KD2 (human) = RPS6KA3 KD1 KD2 (human) (UniProt P51812)
MAP3K5 (human) = MAP3K5 (human) (UniProt Q99683)
PDPK1 (human) = PDPK1 (human) (UniProt O15530)
TAOK1 (human) = TAOK1 (human) (UniProt Q7L7X3)

SMILES: c1ccc(-c2cnc(Nc3ccc(OCCN4CCCC4)cc3)s2)cc1
residual activity (CDK5 CDK5R1 p35 (human)): 82.4% | residual activity (CAMK2G (human)): 66.9% | residual activity (PKN2 (human)): 97% | residual activity (WNK2 (human)): 119% | residual activity (CAMKK1 (human)): 56.6% | residual activity (MELK (human)): 83.5% | residual activity (PASK (human)): 96.4% | residual activity (EPHA7 (human)): 98% | residual activity (FRK (human)): 83% | residual activity (INSR (human)): 95% | residual activity (CDC42BPB (human)): 96.7% | residual activity (PLK2 (human)): 105% | residual activity (BRSK1 (human)): 97.6% | residual activity (DCLK2 (human)): 87.6% | residual activity (AKT1 (human)): 101% | residual activity (IKBKB (human)): 98.1% | residual activity (ABL1 (human)): 63.3% | residual activity (PRKD1 (human)): 78.4% | residual activity (SIK2 (human)): 45.6% | residual activity (PAK2 (human)): 94.8% | residual activity (MUSK (human)): 84.2% | residual activity (PRKD3 (human)): 74% | residual activity (CAMK4 (human)): 97.2% | residual activity (MKNK2 (human)): 18.6% | residual activity (CDK2 CCNA2 (human)): 85.2% | residual activity (ACVR1B (human)): 101% | residual activity (AURKA (human)): 95.3% | residual activity (RPS6KA6 KD1 KD2 (human)): 94.5% | residual activity (PDGFRA (human)): 57.4% | residual activity (INSRR (human)): 99.6% | residual activity (PTK2 (human)): 98.3% | residual activity (MATK (human)): 94.3% | residual activity (MARK2 (human)): 88% | residual activity (STK39 (human)): 75.4% | residual activity (MAP3K10 (human)): 95.7% | residual activity (NEK9 (human)): 101% | residual activity (MAP3K9 (human)): 94.3% | residual activity (SRPK2 (human)): 103% | residual activity (RPS6KA3 KD1 KD2 (human)): 92.2% | residual activity (MAP3K5 (human)): 91.1% | residual activity (PDPK1 (human)): 84.9%

SMILES: O=c1cc(N2CCOCC2)oc2c(-c3ccccc3)cccc12
residual activity (CDK5 CDK5R1 p35 (human)): 107% | residual activity (CAMK2G (human)): 90.5% | residual activity (PKN2 (human)): 98.6% | residual activity (WNK2 (human)): 110% | residual activity (CAMKK1 (human)): 105% | residual activity (MELK (human)): 91.3% | residual activity (PASK (human)): 90.2% | residual activity (EPHA7 (human)): 102% | residual activity (FRK (human)): 101% | residual activity (INSR (human)): 104% | residual activity (CDC42BPB (human)): 88.4% | residual activity (PLK2 (human)): 98.9% | residual activity (BRSK1 (human)): 103% | residual activity (DCLK2 (human)): 97.6% | residual activity (AKT1 (human)): 95.7% | residual activity (IKBKB (human)): 100% | residual activity (ABL1 (human)): 99.2% | residual activity (PRKD1 (human)): 98.3% | residual activity (SIK2 (human)): 96.8% | residual activity (PAK2 (human)): 103% | residual activity (MUSK (human)): 102% | residual activity (PRKD3 (human)): 92.5% | residual activity (CAMK4 (human)): 104% | residual activity (MKNK2 (human)): 103% | residual activity (CDK2 CCNA2 (human)): 106% | residual activity (ACVR1B (human)): 101% | residual activity (AURKA (human)): 99% | residual activity (PDGFRA (human)): 94.6% | residual activity (INSRR (human)): 97.7% | residual activity (PTK2 (human)): 103% | residual activity (MATK (human)): 84.6% | residual activity (MARK2 (human)): 79.2% | residual activity (STK39 (human)): 78.4% | residual activity (MAP3K10 (human)): 90.1% | residual activity (NEK9 (human)): 101% | residual activity (MAP3K9 (human)): 108% | residual activity (SRPK2 (human)): 98.2% | residual activity (TAOK1 (human)): 86.4% | residual activity (RPS6KA3 KD1 KD2 (human)): 98.1% | residual activity (MAP3K5 (human)): 96.2% | residual activity (PDPK1 (human)): 104%

residual activity (CDK5 CDK5R1 p35 (human)): 97.2% | residual activity (CAMK2G (human)): 111% | residual activity (PKN2 (human)): 99.3% | residual activity (WNK2 (human)): 106% | residual activity (CAMKK1 (human)): 101% | residual activity (MELK (human)): 91.7% | residual activity (PASK (human)): 64.1% | residual activity (EPHA7 (human)): 99.4% | residual activity (FRK (human)): 97.5% | residual activity (INSR (human)): 100% | residual activity (CDC42BPB (human)): 95.2% | residual activity (PLK2 (human)): 95.8% | residual activity (BRSK1 (human)): 92.7% | residual activity (DCLK2 (human)): 96% | residual activity (AKT1 (human)): 104% | residual activity (ABL1 (human)): 96.3% | residual activity (PRKD1 (human)): 82.4% | residual activity (SIK2 (human)): 96.4% | residual activity (PAK2 (human)): 103% | residual activity (MUSK (human)): 14.8% | residual activity (PRKD3 (human)): 64.7% | residual activity (CAMK4 (human)): 99% | residual activity (MKNK2 (human)): 51% | residual activity (CDK2 CCNA2 (human)): 94.4% | residual activity (ACVR1B (human)): 97.1% | residual activity (AURKA (human)): 83.8% | residual activity (RPS6KA6 KD1 KD2 (human)): 87% | residual activity (PDGFRA (human)): 99% | residual activity (INSRR (human)): 92.2% | residual activity (PTK2 (human)): 93% | residual activity (MATK (human)): 89.8% | residual activity (MARK2 (human)): 97.9% | residual activity (STK39 (human)): 96.9% | residual activity (MAP3K10 (human)): 79.6% | residual activity (MAP3K9 (human)): 100% | residual activity (SRPK2 (human)): 97.1% | residual activity (TAOK1 (human)): 98% | residual activity (MAP3K5 (human)): 102% | residual activity (PDPK1 (human)): 95.9%
SMILES: N#C/C(=C1/Nc2ccccc2S1)c1ccnc(NCCc2cccnc2)n1
residual activity (NEK9 (human)): 94.4%

SMILES: N#Cc1c(NC(=O)c2cccc3ccccc23)sc2c1CCCC2
residual activity (CDK5 CDK5R1 p35 (human)): 105% | residual activity (CAMK2G (human)): 99.6% | residual activity (PKN2 (human)): 103% | residual activity (WNK2 (human)): 109% | residual activity (CAMKK1 (human)): 109% | residual activity (MELK (human)): 83.3% | residual activity (PASK (human)): 98.3% | residual activity (FRK (human)): 104% | residual activity (INSR (human)): 98.2% | residual activity (CDC42BPB (human)): 98% | residual activity (PLK2 (human)): 101% | residual activity (BRSK1 (human)): 97% | residual activity (DCLK2 (human)): 96.5% | residual activity (AKT1 (human)): 101% | residual activity (IKBKB (human)): 97% | residual activity (ABL1 (human)): 103% | residual activity (PRKD1 (human)): 101% | residual activity (SIK2 (human)): 101% | residual activity (PAK2 (human)): 103% | residual activity (MUSK (human)): 94.8% | residual activity (PRKD3 (human)): 97.7% | residual activity (CAMK4 (human)): 108% | residual activity (MKNK2 (human)): 106% | residual activity (CDK2 CCNA2 (human)): 100% | residual activity (ACVR1B (human)): 96.5% | residual activity (AURKA (human)): 101% | residual activity (RPS6KA6 KD1 KD2 (human)): 101% | residual activity (PDGFRA (human)): 101% | residual activity (INSRR (human)): 94.3% | residual activity (PTK2 (human)): 101% | residual activity (MATK (human)): 92.7% | residual activity (MARK2 (human)): 105% | residual activity (STK39 (human)): 94.6% | residual activity (MAP3K10 (human)): 85.4% | residual activity (NEK9 (human)): 96% | residual activity (MAP3K9 (human)): 99.5% | residual activity (SRPK2 (human)): 99.2% | residual activity (TAOK1 (human)): 106% | residual activity (RPS6KA3 KD1 KD2 (human)): 99% | residual activity (MAP3K5 (human)): 99% | residual activity (PDPK1 (human)): 92.1%

SMILES: O=S(=O)(NCCNC/C=C/c1ccc(Br)cc1)c1cccc2cnccc12
residual activity (CAMK2G (human)): 98.7% | residual activity (PKN2 (human)): 78.9% | residual activity (WNK2 (human)): 99.4% | residual activity (CAMKK1 (human)): 99.1% | residual activity (MELK (human)): 75.1% | residual activity (PASK (human)): 94.5% | residual activity (EPHA7 (human)): 109% | residual activity (INSR (human)): 94.3% | residual activity (CDC42BPB (human)): 99.5% | residual activity (BRSK1 (human)): 92% | residual activity (DCLK2 (human)): 90.1% | residual activity (AKT1 (human)): 41.6% | residual activity (IKBKB (human)): 89.5% | residual activity (ABL1 (human)): 101% | residual activity (PRKD1 (human)): 98.7% | residual activity (SIK2 (human)): 95% | residual activity (PAK2 (human)): 78.6% | residual activity (MUSK (human)): 80.7% | residual activity (PRKD3 (human)): 79.2% | residual activity (CAMK4 (human)): 95.2% | residual activity (MKNK2 (human)): 78.7% | residual activity (CDK2 CCNA2 (human)): 105% | residual activity (AURKA (human)): 104% | residual activity (RPS6KA6 KD1 KD2 (human)): 71.8% | residual activity (PDGFRA (human)): 98.8% | residual activity (INSRR (human)): 103% | residual activity (PTK2 (human)): 64.1% | residual activity (MATK (human)): 96.1% | residual activity (MARK2 (human)): 89.3% | residual activity (STK39 (human)): 103% | residual activity (MAP3K10 (human)): 85.5% | residual activity (NEK9 (human)): 99.3% | residual activity (MAP3K9 (human)): 99.6% | residual activity (SRPK2 (human)): 88.3% | residual activity (TAOK1 (human)): 101% | residual activity (RPS6KA3 KD1 KD2 (human)): 70.9% | residual activity (MAP3K5 (human)): 93.2% | residual activity (PDPK1 (human)): 94.1%
